Source: patent US9586963B2 (GENFIT, priority 2011, dated 2017)
Counter-ions that a name gives are not always drawn.

target: T1, Rev-Erb alpha (Homo sapiens, UniProt P20393); assay: M2H (mammalian two-hybrid) cellular activation assay of Rev-Erb alpha; type: cell-based; conditions: M2H assay, HEK293 cells, Gal4-Rev-Erb alpha / VP16-NCoR, luciferase reporter
T1 sequence (P20393 284-614 limits assumed): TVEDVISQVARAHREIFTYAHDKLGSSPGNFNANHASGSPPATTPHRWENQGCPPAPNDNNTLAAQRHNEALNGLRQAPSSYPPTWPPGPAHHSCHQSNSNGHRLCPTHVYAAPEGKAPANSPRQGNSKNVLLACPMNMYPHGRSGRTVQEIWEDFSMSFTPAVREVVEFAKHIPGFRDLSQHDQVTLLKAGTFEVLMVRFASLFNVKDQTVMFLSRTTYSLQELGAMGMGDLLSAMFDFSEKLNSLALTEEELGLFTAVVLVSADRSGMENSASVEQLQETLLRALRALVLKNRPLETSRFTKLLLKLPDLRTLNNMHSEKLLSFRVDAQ
Outline: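 Six-point dose-response, 18 h, 37 °C, serum-free, in HEK293 cells carrying a Gal4-RE luciferase reporter with Gal4-Rev-Erb alpha or beta plus VP16-NCoR (corepressor interaction readout). EC50 and TOP activation (%) derived from luminescence across four experiments.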

Compound	EC50 [nM]
CS(=O)(=O)N1CCN(Cc2ccc(Oc3ccc4nnc(Cl)n4n3)c(-c3ccccc3)c2)CC1 [Cpd.4-164, 3-chloro-6-(5-(4-methanesulfonyl-piperazin-1-ylmethyl)biphenyl-2-yloxy)-[1,2,4]triazolo[4,3-b]pyridazine]	1000 to 6000
Clc1nnc2ccc(Oc3cc(CNCC4CCCCC4)ccc3-c3ccccc3)nn12 [Cpd.4-176, 3-chloro-6-(4-(cyclohexylmethyl)aminomethylbiphenyl-2-yloxy)-[1,2,4]triazolo[4,3-b]pyridazine]	1000 to 6000
Cc1ccc(-c2ccc(C(F)(F)F)cc2Oc2nn3c(Cl)nnc3c3ccccc23)cn1 [Cpd.5-18, 3-chloro-6-(2-(6-methylpyridin-3-yl)-5-(trifluoromethyl)phenoxy)-[1,2,4]triazolo[3,4-a]phthalazine]	100 to 1000
CN(Cc1ccc(Oc2ccc3nnc(Cl)n3n2)c(-c2ccccc2)c1)C1CCCCC1	1000 to 6000
FC(F)(F)c1ccc(-c2nccs2)c(Oc2ccc3nnc(Cl)n3n2)c1 [Cpd.4-105, 3-chloro-6-(2-(thiazol-2-yl)-5-(trifluoromethyl)phenoxy)-[1,2,4]triazolo[4,3-b]pyridazine]	1000 to 6000
Fc1cccc(-c2cccc(Oc3ccc4nnc(Cl)n4n3)c2)c1 [Cpd.3-6, 6-(3′-fluoro-biphenyl-3-yloxy)-3-chloro-[1,2,4]triazolo[4,3-b]pyridazine]	100 to 1000
Clc1nnc2ccc(Oc3ccccc3-c3cccnc3)nn12 [Cpd.4-98, 3-chloro-6-(2-(pyridin-3-yl)phenoxy)-[1,2,4]triazolo[4,3-b]pyridazine hydrochloride]	> 6000
COc1ncccc1-c1ccc(C(F)(F)F)cc1Oc1nn2c(Cl)nnc2c(C)c1C [Cpd.5-25, 3-chloro-7,8-dimethyl-6-((2-(2-methoxypyridin-3-yl))-5-(trifluoromethyl)phenoxy)-[1,2,4]triazolo[4,3-b]pyridazine]	1000 to 6000
COc1ccncc1-c1ccc(C(F)(F)F)cc1Oc1ccc2nnc(Cl)n2n1 [Cpd.4-100, 3-chloro-6-(2-(4-methoxypyridin-3-yl)-5-(trifluoromethyl)phenoxy)-[1,2,4]triazolo[4,3-b]pyridazine]	1000 to 6000
Cc1cc(Oc2cccc(C(F)(F)F)c2-c2cncnc2)nn2c(Cl)nnc12 [Cpd.5-42, 3-chloro-8-methyl-6-(2-(pyrimidin-5-yl)-3-(trifluoromethyl)phenoxy)-[1,2,4]triazolo[4,3-b]pyridazine]	1000 to 6000
Clc1nnc2ccc(Oc3ccccc3-c3nccs3)nn12 [Cpd.4-104, 3-chloro-6-(2-(thiazol-2-yl)phenoxy)-[1,2,4]triazolo[4,3-b]pyridazine]	> 6000
Cc1nc(-c2ccc(Oc3nn4c(Cl)nnc4cc3C)c(-c3ccccc3)c2)no1 [Cpd.5-65, 3-chloro-7-methyl-6-(4-(5-methyl-1,2,4-oxadiazol-3-yl)-2-(phenyl)phenoxy)-[1,2,4]triazolo[4,3-b]pyridazine]	1000 to 6000
COC(=O)c1cccc(-c2cc(F)ccc2Oc2ccc3nnc(Cl)n3n2)c1 [Cpd.4-75]	1000 to 6000
COc1ncccc1-c1ccc(C(F)(F)F)cc1Oc1ccc2nnc(Cl)n2n1 [Cpd.4-80, 3-chloro-6-(2-(2-methoxypyridin-3-yl)-5-(trifluoromethyl)phenoxy)-[1,2,4]triazolo[4,3-b]pyridazine hydrochloride]	100 to 1000
Cc1cc(Oc2cc(C(F)(F)F)ccc2-c2cncnc2)nn2c(Cl)nnc12 [Cpd.5-30, 3-chloro-8-methyl-6-(2-(pyrimidin-5-yl)-5-(trifluoromethyl)phenoxy)-[1,2,4]triazolo[4,3-b]pyridazine]	1000 to 6000
Cc1cc2nnc(Cl)n2nc1Oc1c(-c2cncnc2)ccc(C(F)(F)F)c1F [Cpd.5-31, 3-chloro-6-(2-fluoro-6-(pyrimidin-5-yl)-3-(trifluoromethyl)phenoxy)-7-methyl-[1,2,4]triazolo[4,3-b]pyridazine]	1000 to 6000
Clc1nnc2ccc(Oc3ccc(CNC4CCCC4)cc3-c3ccccc3)nn12 [Cpd.4-160, 3-chloro-6-(5-(cyclopentylaminomethyl)biphenyl-2-yloxy)-[1,2,4]triazolo[4,3-b]pyridazine]	1000 to 6000
COc1ncc(-c2ccc(C(F)(F)F)cc2Oc2nn3c(Cl)nnc3cc2C)cn1 [Cpd.5-35, 3-chloro-7-methyl-6-((2-(2-methoxypyrimidin-5-yl))-5-(trifluoromethyl)phenoxy)-[1,2,4]triazolo[4,3-b]pyridazine]	1000 to 6000
Clc1ccc(Oc2ccc(Cl)cc2Oc2ccc3nnc(Cl)n3n2)c(Cl)c1 [Cpd.4-114, 3-chloro-6-[5-chloro-2-(2,4-dichloro-phenoxy)-phenoxy]-[1,2,4]triazolo[4,3-b]pyridazine]	100 to 1000
CCCCN(CCCC)c1ccc(Oc2ccc3nnc(Cl)n3n2)c(-c2ccccc2)c1 [Cpd.4-57, 3-chloro-6-(5-dibutylamino-biphenyl-2-yloxy)-[1,2,4]triazolo[4,3-b]pyridazine]	100 to 1000
Clc1nnc2ccc(Oc3ccc(CNCC4CCCO4)cc3-c3ccccc3)nn12 (stereo not shown) [Cpd.4-163, 3-chloro-6-(5-(tetrahydrofurfurylaminomethyl)biphenyl-2-yloxy)-[1,2,4]triazolo[4,3-b]pyridazine]	> 6000

Further lines, results first:

EC50 [nM]	Compound
100 to 1000	COC(=O)c1ccc(Oc2ccc3nnc(Cl)n3n2)c(-c2ccccc2)c1 [Cpd.4-69, 3-chloro-6-(5-methyloxycarbonyl-biphenyl-2-yloxy)-[1,2,4]triazolo[4,3-b]pyridazine]
100 to 1000	Oc1cccc(-c2ccc(C(F)(F)F)cc2Oc2ccc3nnc(Cl)n3n2)c1 [Cpd.4-37, 6-(3′-hydroxy-4-trifluoromethyl-biphenyl-2-yloxy)-3-chloro-[1,2,4]triazolo[4,3-b]pyridazine]
100 to 1000	Fc1ccc(-c2ccccc2Oc2ccc3nnc(Cl)n3n2)c(F)c1 [Cpd.4-13, 6-(2′,4′-difluoro-biphenyl-2-yloxy)-3-chloro-[1,2,4]triazolo[4,3-b]pyridazine]
1000 to 6000	CCOc1ccc(-c2ccc(C(F)(F)F)cc2Oc2ccc3nnc(Cl)n3n2)cn1 [Cpd.4-84, 3-chloro-6-(2-(6-ethoxypyridin-3-yl)-5-(trifluoromethyl)phenoxy)-[1,2,4]triazolo[4,3-b]pyridazine]
1000 to 6000	O=[N+]([O-])c1ccc(Oc2ccc3nnc(Cl)n3n2)c(-c2ccccc2)c1 [Cpd.4-134, 3-chloro-6-(5-nitrobiphenyl-2-yloxy)-[1,2,4]triazolo[4,3-b]pyridazine]
1000 to 6000	CC(C)C(=O)Nc1ccc(Oc2ccc3nnc(Cl)n3n2)c(-c2ccccc2)c1 [Cpd.4-192, 3-chloro-6-(5-isopropylcarbonylamino-biphenyl-2-yloxy)-[1,2,4]triazolo[4,3-b]pyridazine]
100 to 1000	COc1cccc(-c2ccc(C(F)(F)F)cc2Oc2ccc3nnc(Cl)n3n2)c1 [Cpd.4-71, 3-chloro-6-(3′-methoxy-4-trifluoromethyl-biphenyl-2-yloxy)-[1,2,4]triazolo[4,3-b]pyridazine]
1000 to 6000	CC(C)(C)OC(=O)NCc1ccc(-c2ccccc2)c(Oc2ccc3nnc(Cl)n3n2)c1 [Cpd.4-186, 3-chloro-6-(4-tertbutyloxycarbonylaminomethylbiphenyl-2-yloxy)-[1,2,4]triazolo[4,3-b]pyridazine]
100 to 1000	Cc1nc(-c2ccc(Oc3ccc4nnc(Cl)n4n3)c(-c3ccccc3)c2)no1 [Cpd.4-198, 3-chloro-6-(4-(5-methyl-1,2,4-oxadiazol-3-yl)-2-(phenyl)phenoxy)-[1,2,4]triazolo[4,3-b]pyridazine]
100 to 1000	CC(C)(C)OC(=O)NCc1ccc(Oc2ccc3nnc(Cl)n3n2)c(-c2ccccc2)c1 [Cpd.4-170, 3-chloro-6-(5-(tertbutyloxycarbonylaminomethyl)biphenyl-2-yloxy)-[1,2,4]triazolo[4,3-b]pyridazine]
100 to 1000	FC(F)(F)c1cccc(-c2ccccc2Oc2ccc3nnc(Cl)n3n2)c1 [Cpd.4-28, 6-(3′-trifluoromethyl-biphenyl-2-yloxy)-3-chloro-[1,2,4]triazolo[4,3-b]pyridazine]
100 to 1000	Fc1ccc2c(Oc3cc(C(F)(F)F)ccc3-c3ccccc3)nn3c(Cl)nnc3c2c1 [Cpd.5-2, 3-chloro-6-(4-trifluoromethyl-biphenyl-2-yloxy)-9-fluoro-[1,2,4]triazolo[3,4-a]phthalazine]
1000 to 6000	CC(=O)Nc1ccc(-c2ccccc2)c(Oc2ccc3nnc(Cl)n3n2)c1 [Cpd.4-49, 3-chloro-6-(4-acetamido-biphenyl-2-yloxy)-[1,2,4]triazolo[4,3-b]pyridazine]
1000 to 6000	OCc1ccc(Oc2ccc3nnc(Cl)n3n2)c(-c2ccccc2)c1 [Cpd.4-66, 3-chloro-6-(5-hydroxymethyl-biphenyl-2-yloxy)-[1,2,4]triazolo[4,3-b]pyridazine]
> 6000	NCc1ccc(Oc2ccc3nnc(Cl)n3n2)c(-c2ccccc2)c1 [Cpd.4-171, 3-chloro-6-(5-aminomethylbiphenyl-2-yloxy)-[1,2,4]triazolo[4,3-b]pyridazine, trifluoroacetic acid salt]
> 6000	CCN(CC)Cc1ccc(Oc2ccc3nnc(Cl)n3n2)c(-c2ccccc2)c1 [Cpd.4-157, 3-chloro-6-(5-diethylaminomethylbiphenyl-2-yloxy)-[1,2,4]triazolo[4,3-b]pyridazine]
1000 to 6000	Fc1cc(Oc2ccc3nnc(C(F)(F)F)n3n2)c(-c2ccccc2)cc1F [Cpd.4-61, 3-trifluoromethyl-6-(4,5-difluorobiphenyl-2-yloxy)-[1,2,4]triazolo[4,3-b]pyridazine]

same assay, conditions: M2H assay, HEK293 cells; relative to DMSO; at the tested dose; read-out: TOP activation

Compound	Emax [%]
Clc1nnc2ccc(Oc3ccccc3-c3cccnc3)nn12 [Cpd.4-98, 3-chloro-6-(2-(pyridin-3-yl)phenoxy)-[1,2,4]triazolo[4,3-b]pyridazine hydrochloride]	> 130
Clc1nnc2ccc(Oc3ccccc3-c3nccs3)nn12 [Cpd.4-104, 3-chloro-6-(2-(thiazol-2-yl)phenoxy)-[1,2,4]triazolo[4,3-b]pyridazine]	> 130
Clc1nnc2ccc(Oc3ccc(CNCC4CCCO4)cc3-c3ccccc3)nn12 (stereo not shown) [Cpd.4-163, 3-chloro-6-(5-(tetrahydrofurfurylaminomethyl)biphenyl-2-yloxy)-[1,2,4]triazolo[4,3-b]pyridazine]	> 130

Continued, values first:

Emax [%]	Compound
> 130	NCc1ccc(Oc2ccc3nnc(Cl)n3n2)c(-c2ccccc2)c1 [Cpd.4-171, 3-chloro-6-(5-aminomethylbiphenyl-2-yloxy)-[1,2,4]triazolo[4,3-b]pyridazine, trifluoroacetic acid salt]
> 130	CCN(CC)Cc1ccc(Oc2ccc3nnc(Cl)n3n2)c(-c2ccccc2)c1 [Cpd.4-157, 3-chloro-6-(5-diethylaminomethylbiphenyl-2-yloxy)-[1,2,4]triazolo[4,3-b]pyridazine]
